Results reported in US8129355B2, “Ketone ligands for modulating the expression of exogenous genes via an ecdysone receptor complex” (priority 2002, dated 2012).

Columns and labels:
[1] = target: T1, Gal4 DBD/AaEcR (DEF) with VP16-βRXR-E (Aedes aegypti, UniProt P49880); test: cell-based; type: cell-based; details: for Fold Induction Average, AA_3T3 Assay (33 μM): single dose 33 μM, RLU ligand treated / RLU DMSO treated cells; for LC50 (half-maximal ligand concentration for reporter induction): average, dose response 33 μM to 0.01 μM, three-parameter logistic model, read-out: AA_3T3 LC50; for AA_3T3 Rel Max FI: maximum fold induction at any concentration relative to that of GS-E ligand
T1 construct: The wildtype D, E, and F domains from mosquito Aedes aegypti EcR (“AaEcR-DEF”); expressed in transfected cells; host or cells: 3T3 cells, transient transfection (Superfect)
T1 sequence (P28704 286-520 A311G/G315S/G445S/I449V): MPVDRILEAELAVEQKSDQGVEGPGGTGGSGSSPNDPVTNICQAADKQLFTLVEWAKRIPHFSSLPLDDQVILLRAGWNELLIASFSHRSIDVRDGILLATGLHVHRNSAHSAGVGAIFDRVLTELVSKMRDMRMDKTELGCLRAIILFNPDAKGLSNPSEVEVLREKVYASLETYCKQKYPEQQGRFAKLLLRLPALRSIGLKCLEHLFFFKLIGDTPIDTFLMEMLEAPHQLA
T1 sequence (P49880 405-776): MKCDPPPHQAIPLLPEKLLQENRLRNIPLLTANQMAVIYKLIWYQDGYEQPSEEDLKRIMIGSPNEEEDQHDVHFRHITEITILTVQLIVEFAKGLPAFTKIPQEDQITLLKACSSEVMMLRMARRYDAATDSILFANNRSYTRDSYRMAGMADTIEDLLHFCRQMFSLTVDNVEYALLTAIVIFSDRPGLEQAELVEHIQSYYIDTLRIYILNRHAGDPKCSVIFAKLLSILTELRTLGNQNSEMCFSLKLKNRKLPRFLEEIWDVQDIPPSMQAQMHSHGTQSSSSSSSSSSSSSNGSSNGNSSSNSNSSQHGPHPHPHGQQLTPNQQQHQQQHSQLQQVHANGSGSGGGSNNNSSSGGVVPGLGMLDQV
Protocol: 3T3 cells were trypsinized and plated at 2.5×10^3 cells/well on a 96-well plate. After incubation for 24 h at 37° C. under 5% CO2, cells were transfected with the Gal4 DBD/AaEcR (DEF) gene expression cassette and the reporter plasmid, pFRLuc, containing a 5XGAL4 response element and the firefly luciferase gene in serum free media using Superfect (Qiagen). After transfection for 4 h at 37° C., the cells were treated with ligand in serum media. […] Single dose testing was performed at 33 μM.

[2] = target: T2, GAL4 DBD (1-147)-CfEcR(DEF)/VP16AD-βRXREF-LmUSPEF (Choristoneura fumiferana, UniProt O77240); test: 27-63 assay: luciferase reporter gene expression in stable CHO cell clone 27-63; details: for 27-63 Rel Max FI: maximum fold induction at any concentration relative to that of GS-E ligand; for CC50: read-out: 27-63 LC50, average, dose response, three-parameter logistic model; for Fold Induction Average, 27-63 Assay (33 μM): single dose 33 μM, RLU ligand treated / RLU DMSO treated cells
T2 sequence (O77240 191-513): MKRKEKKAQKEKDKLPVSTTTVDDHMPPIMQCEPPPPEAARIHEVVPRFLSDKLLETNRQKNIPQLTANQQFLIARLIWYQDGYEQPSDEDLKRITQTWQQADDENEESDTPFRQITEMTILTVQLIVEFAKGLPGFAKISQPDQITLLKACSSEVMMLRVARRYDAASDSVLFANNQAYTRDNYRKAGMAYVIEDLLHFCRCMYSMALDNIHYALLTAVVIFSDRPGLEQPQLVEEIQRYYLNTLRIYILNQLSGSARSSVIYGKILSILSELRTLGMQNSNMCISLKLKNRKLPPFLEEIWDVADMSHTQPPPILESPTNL
T2 sequence (P28702 296-455 partner limits assumed): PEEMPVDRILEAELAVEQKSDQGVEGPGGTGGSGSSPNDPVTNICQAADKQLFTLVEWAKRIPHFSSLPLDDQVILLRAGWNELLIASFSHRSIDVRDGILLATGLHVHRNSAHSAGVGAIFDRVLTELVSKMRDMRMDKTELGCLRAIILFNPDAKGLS
Text: GAL4 DBD (1-147)-CfEcR(DEF)/VP16AD-βRXREF-LmUSPEF: The wild-type D, E, and F domains from spruce budworm Choristoneura fumiferana EcR (“CfEcR-DEF”; SEQ ID NO: 1) were fused to a GAL4 DNA binding domain (“Gal4 DBD1-147”; nucleotides 31 to 471 of SEQ ID NO: 2) and placed under the control of a phosphoglycerate kinase promoter (“PGK”; SEQ ID NO: 3). Helices 1 through 8 of the EF domains from Homo sapiens RXRβ and helices 9 through 12 of the EF domains of Locusta migratoria Ultraspiracle Protein (“HsRXRβ-EF-LmUSP-EF”; SEQ ID NO: 4) were fused to the transactivation domain from VP16 (“VP16AD”; SEQ ID NO: 5) and placed under the control of an elongation factor-1α promoter (“EF-1α”; SEQ ID NO: 6). Five consensus GAL4 response element binding sites (“5XGAL4RE”; comprising 5 copies of a GAL4RE comprising SEQ ID NO: 7) were fused to a synthetic TATA minimal promoter (SEQ ID NO: 8) and placed upstream of the luciferase reporter gene (SEQ ID NO: 9).
CHO cells were transiently transfected with transcription cassettes for GAL4 DBD (1-147) CfEcR(DEF) and for VP16AD βRXREF-LmUSPEF controlled by ubiquitously active cellular promoters (PGK and EF-1α, respectively) on a single plasmid. Stably transfected cells were selected by Zeocin resistance. Individually isolated CHO cell clones were transiently transfected with a GAL4 RE-luciferase reporter (pFR Luc). 27-63 clone was selected using Hygromycin.
Cells were trypsinized and diluted to a concentration of 2.5×10^4 cells mL. 100 μL of cell suspension was placed in each well of a 96 well plate and incubated at 37° C. under 5% CO2 for 24 h. Ligand stock solutions were prepared in DMSO and diluted 300 fold for all treatments. Dose response testing consisted of 8 concentrations ranging from 33 μM to 0.01 μM.
Luciferase reporter gene expression was measured 48 h after cell treatment using Bright-Glo™ Luciferase Assay System from Promega (E2650). Luminescence was detected at room temperature using a Dynex MLX microtiter plate luminometer.
Fold inductions were calculated from single dose testing by dividing relative light units (RLU) in ligand treated cells by RLU in DMSO treated cells. BC50s were calculated from dose response data using a three-parameter logistic model.

[3] = target: T3, Bombyx mori EcR (VP16 fusion, switch construct CVBE) with 6XEcRE LacZ reporter (Bombyx mori, UniProt P49881); test: Z3 assay: β-galactosidase (LacZ) reporter gene fold induction in stably transformed human 293 kidney cells (clone Z3); type: cell-based; details: for CC50: average, dose response, three-parameter logistic model, read-out: Z3 LC50; for Z3 Rel Max FI: maximum fold induction at any concentration relative to that of GS-E ligand
T3 construct: expressed in transfected cells; host or cells: Human 293 kidney (HEK-293) cells, retrovirally infected, clone Z3
T3 sequence (P49881 86-606 limits assumed): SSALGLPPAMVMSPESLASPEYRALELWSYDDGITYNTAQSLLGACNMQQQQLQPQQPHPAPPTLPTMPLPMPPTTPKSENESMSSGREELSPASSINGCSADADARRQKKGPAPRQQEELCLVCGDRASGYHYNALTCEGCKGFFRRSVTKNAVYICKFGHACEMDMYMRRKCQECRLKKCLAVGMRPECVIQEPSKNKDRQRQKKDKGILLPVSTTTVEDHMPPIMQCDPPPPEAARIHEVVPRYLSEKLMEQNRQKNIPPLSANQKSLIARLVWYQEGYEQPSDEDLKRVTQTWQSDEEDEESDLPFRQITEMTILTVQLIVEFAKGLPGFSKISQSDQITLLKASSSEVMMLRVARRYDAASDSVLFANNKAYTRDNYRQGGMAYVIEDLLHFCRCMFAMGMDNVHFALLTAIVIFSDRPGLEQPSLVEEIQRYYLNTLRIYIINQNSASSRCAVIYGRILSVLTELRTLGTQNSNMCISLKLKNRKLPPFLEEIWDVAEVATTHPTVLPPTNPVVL
T3 sequence (P19793 1-462 partner): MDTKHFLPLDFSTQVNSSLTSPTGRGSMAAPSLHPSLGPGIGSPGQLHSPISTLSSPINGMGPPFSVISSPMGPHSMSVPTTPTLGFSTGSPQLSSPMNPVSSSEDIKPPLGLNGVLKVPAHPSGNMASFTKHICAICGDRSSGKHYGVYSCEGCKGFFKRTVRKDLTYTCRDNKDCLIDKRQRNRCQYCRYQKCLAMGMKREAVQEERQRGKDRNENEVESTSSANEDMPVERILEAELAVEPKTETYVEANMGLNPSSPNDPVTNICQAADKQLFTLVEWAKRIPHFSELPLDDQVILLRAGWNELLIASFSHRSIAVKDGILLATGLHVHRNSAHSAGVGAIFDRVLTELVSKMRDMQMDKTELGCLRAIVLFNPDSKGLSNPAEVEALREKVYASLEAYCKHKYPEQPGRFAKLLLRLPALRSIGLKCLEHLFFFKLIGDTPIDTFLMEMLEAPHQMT
Method in brief: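 β-Galactosidase read 48 h after dosing by bioluminescent assay; ligand added at 33 μM with DMSO held at 0.03%. The cells are stable 293 clone Z3, expressing a CMV-driven VP16 fusion of Bombyx mori EcR residues 26-546 plus six EcRE copies upstream of lacZ.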

[4] = target: T4, GAL4 DBD-CfEcR(DEF)/VP16AD-MmRXRE (Choristoneura fumiferana, UniProt O77240); test: cell-based
T4 sequence (O77240 1-513): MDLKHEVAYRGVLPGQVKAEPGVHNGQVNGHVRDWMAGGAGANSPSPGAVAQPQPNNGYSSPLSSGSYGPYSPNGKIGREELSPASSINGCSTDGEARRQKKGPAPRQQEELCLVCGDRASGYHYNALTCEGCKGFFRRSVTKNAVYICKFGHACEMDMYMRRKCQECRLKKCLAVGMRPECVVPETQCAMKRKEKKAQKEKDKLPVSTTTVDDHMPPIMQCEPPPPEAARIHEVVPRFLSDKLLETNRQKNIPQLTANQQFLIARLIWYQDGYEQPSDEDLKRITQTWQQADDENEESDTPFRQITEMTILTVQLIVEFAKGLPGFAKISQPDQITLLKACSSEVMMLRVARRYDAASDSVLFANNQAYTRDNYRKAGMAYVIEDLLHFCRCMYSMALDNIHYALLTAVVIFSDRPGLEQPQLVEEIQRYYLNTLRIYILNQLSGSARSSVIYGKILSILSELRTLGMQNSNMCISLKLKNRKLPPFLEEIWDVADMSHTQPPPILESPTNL
Method in brief: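 Stable CHO clone 13B3 expressing GAL4 DBD-CfEcR(DEF) and VP16AD-mouse RXR(DE) with GAL4 RE-luciferase reporter. Ligands tested at 8 concentrations, 33–0.01 μM; luciferase read 48 h after treatment. Fold induction versus DMSO; BC50 from three-parameter logistic fit.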

[5] = single dose 33 μM, ligand treated / DMSO treated cells

Row | Compound | Fold Induction Average, AA_3T3 Assay (33 μM) [1] | 27-63 Rel Max FI [2] | CC50 [2] | Fold Induction Average, Z3 Assay (33 μM) [3, 5] | CC50 [3] | Z3 Rel Max FI [3] | further results
1 | CCC(=O)C(C)(C)NC(=O)c1ccccc1C [Example 124] | 2 |  |  |  |  |  | 
2 | CCc1ccc(C(=O)NC2(C(=O)c3cc(C)cc(C)c3)CCCC2)cc1 [Example 138] | 2134 | 0.75 | 3.59 µM |  |  |  | LC50 (half-maximal ligand concentration for reporter induction) [1]: ~4.7 µM; AA_3T3 Rel Max FI [1]: 0.22
3 | CCC(=O)C(C)(C)NC(=O)c1ccc(CC)cc1 [Example 125] | 1 |  |  |  |  |  | 
4 | COc1cccc(C(=O)NC2(C(=O)c3cc(C)cc(C)c3)CCCC2)c1 [Example 137] | 115 | 0.21 | > 33 µM |  |  |  | LC50 (half-maximal ligand concentration for reporter induction) [1]: > 33 µM; AA_3T3 Rel Max FI [1]: 0.01
5 | COc1cccc(C(=O)NC2(C(=O)c3cc(C)cc(C)c3)CCN(C(=O)OC(C)C)CC2)c1C [Example 158] | 1 |  |  | 4 |  |  | 
6 | COc1cccc(C(=O)NC2(C(=O)c3cc(C)cc(C)c3)CCCN(S(C)(=O)=O)C2)c1C (racemic) [Example 155] |  |  |  | 4 |  |  | Fold Induction Average, 27-63 Assay (33 μM) [2]: 2
7 | Cc1cc(C)cc(C(=O)C2(NC(=O)c3ccc4c(c3)OCCO4)CCCC2)c1 [Example 86] |  | 0.80 | 4.88 µM |  | 5.49 µM | 0.61 | 
8 | CCc1c(C(=O)NC2(C(=O)c3cc(C)cc(C)c3)CCCC2)ccc2c1OCCO2 [Example 84] |  | 0.82 | 1.02 µM |  | 1.59 µM | 0.91 | 
9 | CCC(=O)C1(NC(=O)c2ccccc2C)CCCC1 [Example 132] | 1 |  |  |  |  |  | 
10 | COc1cccc(C(=O)NC2(C(=O)c3cc(C)cc(C)c3)CCCN(C(=O)OC(C)(C)C)C2)c1C (racemic) [Example 146] |  |  |  | 1 |  |  | Fold Induction Average, 27-63 Assay (33 μM) [2]: 1
11 | Cc1cc(C)cc(C(=O)C2(NC(=O)c3ccc4c(c3C)OCO4)CCCCC2)c1 [Example 81] |  | 0.91 | 3.22 µM |  | 3.68 µM | 0.81 | 
12 | CCOC(=O)C(=O)N1CCC(NC(=O)c2cccc(OC)c2C)(C(=O)c2cc(C)cc(C)c2)CC1 [Example 150] |  |  |  | 3 |  |  | Fold Induction Average, 27-63 Assay (33 μM) [2]: 1
13 | Cc1cc(C)cc(C(=O)C2(NC(=O)c3ccc4c(c3)COCO4)CCCCC2)c1 [Example 83] |  | 0.70 | 7.06 µM |  | 6.15 µM | 0.41 | 
14 | COc1cccc(C(=O)NC2(C(=O)c3cc(C)cc(C)c3)CCNCC2)c1C [Example 147] |  |  |  |  |  |  | fold induction at 33 µM ([3]; single dose 33 μM, ligand treated / DMSO treated cells, read-out: Fold Induction Average, Z3 Assay (33 μM)): 1; fold induction at 33 µM ([2]; CHO, read-out: Fold Induction Average, 27-63 Assay (33 μM)): 1
15 | COc1cccc(C(=O)NC(C)(C(=O)c2ccc(F)c(C)c2)C(C)C)c1C (stereo not drawn) [Example 56] |  | 0.06 | > 33 µM |  |  |  | EC50 [4]: > 33 µM; 13B3 Rel Max FI ([4]; maximum fold induction at any concentration relative to that of GS-E ligand): 0.00
16 | COc1cccc(C(=O)NC(C)(C(=O)c2cc(C)cc(C)c2)c2ccc(F)cc2)c1C (stereo not drawn) [Example 73] | 1 |  |  | 4 |  |  | 
17 | Cc1cc(C)cc(C(=O)C2(NC(=O)c3ccc4c(c3)COCO4)CCCC2)c1 [Example 87] |  | 0.53 | 18.7 µM |  | 9.46 µM | 0.17 | 
18 | COc1cccc(C(=O)NC2(C(=O)c3cc(C)cc(C)c3)CCN(S(C)(=O)=O)CC2)c1C [Example 151] |  |  |  | 3 |  |  | Fold Induction Average, 27-63 Assay (33 μM) [2]: 1
19 | Cc1cc(C)cc(C(=O)C2(NC(=O)c3ccc4c(c3)OCCO4)CCCCC2)c1 [Example 82] |  | 0.84 | 1.78 µM |  | 1.99 µM | 0.79 | 
20 | CCOC(=O)CN1CCC(NC(=O)c2cccc(OC)c2C)(C(=O)c2cc(C)cc(C)c2)CC1 [Example 152] |  |  |  | 6 |  |  | Fold Induction Average, 27-63 Assay (33 μM) [2]: 3
